Test results taken from patent publication US11684614B2, “Formulations of hydroxypyridonate actinide/lanthanide decorporation agents” (priority 2017, dated 2023).

Test: 3,4,3-LI(1,2-HOPO)-excipient compatibility study (visual observation, HPLC purity and impurities on storage)
Type: physicochemical
Conditions: for 3L1O Purity / Total Impurities: n = 1
Experimental: The objective of the analytical study described in this report was to evaluate the interactions between 3,4,3-L1(1,2-HOPO) and selected pharmaceutical excipients under 25° C./60% RH and 40° C./75% RH conditions over eight weeks. Physical appearance and potency of the different samples were assessed at T=0, 2, 4, and 8 weeks through visual observations and high performance liquid chromatography (HPLC) analysis.
The stability of 3,4,3-L1(1,2-HOPO) was tested according to the conditions listed below in TABLE 1.1. A11 test samples were stored throughout the study in 40 mL clear USP Type 1 glass vials (28 mm OD×95 mm height; 24 mm screw cap), wrapped in aluminum foil.
• Test Samples: Each test mixture was prepared by weighing the desired quantity of 3,4,3-L1(1,2-HOPO) and excipient (both screened through sieve #40) into vials. Both ingredients were first mixed using a clean glass rod and then vortexed. At each time interval, one vial was withdrawn from each drug-excipient series along with the corresponding placebo preparation and tested as described below.
b. Sample Characterization • Visual Observation: For each sample solution, visual observation consisted in recording color and physical form.
c. Chromatographic Assay and Purity Assessment • Standard Stock Solutions: For each standard stock solutions, the test article was weighed (200 mg) and dissolved by sonication into 30 mL of diluent (water:acetonitrile=90%:10%). After equilibration at room temperature, the volume of the standard solution was adjusted to 50 mL. Standard stock solutions were prepared in duplicates, working standard solutions were prepared by dilution of each stock with the diluent to the desired concentrations. • Calibration Standards: With each experiment, 5 calibration standard solutions at different concentrations were prepared from stock solutions using the diluent. Concentrations of the calibration standards were between 1.6 and 2.4 mg/mL. […] The vials were then mechanically shaken for 15 minutes, followed by centrifugation of the sample solutions (10,000 rpm, 10 min), and the supernatants were used for the assay. • Placebo Preparation: 25 mL of diluent was added to each of the placebo vial. The vials were then mechanically shaken for 15 minutes, followed by centrifugation of the sample solutions (10,000 rpm, 10 min), and the supernatants were used for the assay. Analytical Method: Instrument: Waters Alliance 2695 liquid chromatography system Column: Agilent, Eclipse XDB-C18, 4.6×150 mm, 5 μm. Mobile Phase A: 0.05% formic acid in 95% H2O: 5% ACN Mobile Phase B: 0.05% formic acid in acetonitrile (ACN)
Column Temperature: 25° C. Flow Rate: 1.0 mL/min. Injection Volume: 10 μL Detection: 250 nm Run Time: 50 min Diluent: 9:1 H2O:ACN Analysis Sequence:
• Suitability Requirements: There should be no interference from the diluent/blank at the retention times of 3,4,3-L1(1,2-HOPO) peaks. The relative standard deviation (% RSD) for five replicate system suitability injections should be below 2.0%. The response factor of the second standard should be within 95-105%. The correlation coefficient (R2) of the system linearity standards should be higher than 0.990. 5. Results

## O=C(NCCCN(CCCCN(CCCNC(=O)c1cccc(=O)n1O)C(=O)c1cccc(=O)n1O)C(=O)c1cccc(=O)n1O)c1cccc(=O)n1O [3,4,3-L1(1,2-HOPO)]
25° C./60% RH and 40° C./75% RH, over 8 weeks
  Stability of 3,4,3-L1(1,2-HOPO): stable over 8 weeks
25° C./60% RH, 2 Weeks
  Unknown Impurity RRT 0.24: 0.03 % w/w
  Unknown Impurity RRT 0.58: 0.05 % w/w
  Unknown Impurity RRT 0.59: 0.05 % w/w
  Unknown Impurity RRT 0.62: 0.05 % w/w
  Unknown Impurity RRT 0.87: 0.12 % w/w
  Unknown Impurity RRT 0.89: 0.03 % w/w
  Unknown Impurity RRT 1.02: 0.08 % w/w
  Unknown Impurity RRT 1.11: 0.05 % w/w
  Unknown Impurity RRT 1.27: 0.36 % w/w
  Unknown Impurity RRT 1.3: 0.22 % w/w
  Unknown Impurity RRT 1.39: 0.07 % w/w
  Unknown Impurity RRT 1.41: 0.03 % w/w
  Unknown Impurity RRT 1.46: 0.08 % w/w
  Unknown Impurity RRT 2.31: 0.05 % w/w
  Unknown Impurity RRT 2.6: 0.04 % w/w
  Unknown Impurity RRT 2.8: 0.03 % w/w
  3L1O Purity: 98.67 % Area
  Total Impurities: 1.33 % Area
25° C./60% RH, 4 weeks
  Unknown Impurity RRT 0.24: 0.03 % w/w
  Unknown Impurity RRT 0.58: 0.07 % w/w
  Unknown Impurity RRT 0.6: 0.05 % w/w
  Unknown Impurity RRT 0.62: 0.05 % w/w
  Unknown Impurity RRT 0.87: 0.14 % w/w
  Unknown Impurity RRT 0.89: 0.02 % w/w
  Unknown Impurity RRT 1.03: 0.04 % w/w
  Unknown Impurity RRT 1.11: 0.05 % w/w
  Unknown Impurity RRT 1.27: 0.28 % w/w
  Unknown Impurity RRT 1.3: 0.26 % w/w
  Unknown Impurity RRT 1.39: 0.07 % w/w
  Unknown Impurity RRT 1.41: 0.01 % w/w
  Unknown Impurity RRT 1.46: 0.09 % w/w
  Unknown Impurity RRT 1.72: 0.05 % w/w
  Unknown Impurity RRT 2.3: 0.05 % w/w
  Unknown Impurity RRT 2.59: 0.04 % w/w
  Unknown Impurity RRT 2.79: 0.03 % w/w
  3L1O Purity: 98.66 % Area
  Total Impurities: 1.34 % Area
25° C./60% RH, 8 Weeks
  Unknown Impurity RRT 0.24: 0.04 % w/w
  Unknown Impurity RRT 0.58: 0.07 % w/w
  Unknown Impurity RRT 0.59: 0.05 % w/w
  Unknown Impurity RRT 0.62: 0.06 % w/w
  Unknown Impurity RRT 0.87: 0.15 % w/w
  Unknown Impurity RRT 0.89: 0.02 % w/w
  Unknown Impurity RRT 1.03: 0.08 % w/w
  Unknown Impurity RRT 1.11: 0.05 % w/w
  Unknown Impurity RRT 1.27: 0.41 % w/w
  Unknown Impurity RRT 1.3: 0.23 % w/w
  Unknown Impurity RRT 1.39: 0.07 % w/w
  Unknown Impurity RRT 1.41: 0.01 % w/w
  Unknown Impurity RRT 1.46: 0.09 % w/w
  Unknown Impurity RRT 1.73: 0.06 % w/w
  Unknown Impurity RRT 2.31: 0.07 % w/w
  Unknown Impurity RRT 2.6: 0.05 % w/w
  Unknown Impurity RRT 2.8: 0.03 % w/w
  3L1O Purity: 98.47 % Area
  Total Impurities: 1.53 % Area
40° C./75% RH, 2 Weeks
  Unknown Impurity RRT 0.24: 0.06 % w/w
  Unknown Impurity RRT 0.58: 0.07 % w/w
  Unknown Impurity RRT 0.59: 0.06 % w/w
  Unknown Impurity RRT 0.62: 0.06 % w/w
  Unknown Impurity RRT 0.81: 0.02 % w/w
  Unknown Impurity RRT 0.87: 0.13 % w/w
  Unknown Impurity RRT 0.89: 0.07 % w/w
  Unknown Impurity RRT 1.02: 0.07 % w/w
  Unknown Impurity RRT 1.11: 0.06 % w/w
